Source: patent US20240115578A1, “DRUG COMPOSITION FOR TREATING PEDIATRIC CANCERS” (CHUGAI SEIYAKU KABUSHIKI KAISHA, priority 2021, published 2024)

How the values were obtained:
[1] = Physicochemical input parameters of alectinib for PBPK model
From the text: (§1) The PBPK model was constructed by combining alectinib-specific physicochemical information (molecular weight, logP, pKa, etc.), and the in vitro and in vivo study results obtained so far, with the physiological information on the target population in the SimCYP (registered trademark) software (Certara, Sheffield, UK) (Table 2).

[2] = Blood-to-plasma ratio and free fractions (PBPK input); format: in vitro ADME
From the text: as §1

[3] = Absorption parameters fitted to clinical PK profiles in Japanese adult patients (JP28927); format: in vivo
From the text: It was then optimized using clinical trial results in Japanese adults as parameters related to the absorption process were incorporated into the model.

[4] = Vss after intravenous administration in healthy subjects (Morcos et al.); conditions: human, in vivo, 50 μg, 475 L normalized with 74.8 kg, read-out: Actual Vss
[5] = target: T1, CYP3A4 (Homo sapiens, UniProt P08684); assay: Intrinsic clearance by CYP3A4; format: in vitro ADME
From the text: For pediatric PK prediction, especially for children under the age of 2 years, the need to consider developmental changes in the expression of drug-metabolizing enzymes and the like, in addition to the changes in body size associated with growth, has been reported (C Wagner, P Zhao, Y Pan, V Hsu, J Grillo, S M Huang, V Sinha. Application of Physiologically Based Pharmacokinetic (PBPK) Modeling to Support Dose Selection: Report of an FDA Public Workshop on PBPK. CPT Pharmacometrics Syst Pharmacol. 2015 April; 4(4): 226-30).
as §1
To predict pediatric PK, the physiological information on Japanese adults was replaced with that on Japanese children. […] The inter-individual variability in blood concentration on this simulation was calculated based on Japanese demographic data (Japanese pediatric demographic data source from Japanese Ministry of Health, Labour, and Welfare. Available from: […]

[6] = system: CYP2J2; assay: Intrinsic clearance assigned to CYP2J2; format: in vitro ADME; conditions: CYP2J2 arbitrarily assigned, true enzyme not known
From the text: as §1

[7] = Intrinsic clearance, other HLM; format: in vitro ADME; conditions: human, human liver microsomes; PBPK input; read-out: CLint, HLMother
From the text: as §1

[8] = target: T2, CYP2C8 (Homo sapiens, UniProt P10632); assay: Competitive CYP2C8 inhibition; format: biochemical; conditions: PBPK input
T2 sequence (P10632 1-490): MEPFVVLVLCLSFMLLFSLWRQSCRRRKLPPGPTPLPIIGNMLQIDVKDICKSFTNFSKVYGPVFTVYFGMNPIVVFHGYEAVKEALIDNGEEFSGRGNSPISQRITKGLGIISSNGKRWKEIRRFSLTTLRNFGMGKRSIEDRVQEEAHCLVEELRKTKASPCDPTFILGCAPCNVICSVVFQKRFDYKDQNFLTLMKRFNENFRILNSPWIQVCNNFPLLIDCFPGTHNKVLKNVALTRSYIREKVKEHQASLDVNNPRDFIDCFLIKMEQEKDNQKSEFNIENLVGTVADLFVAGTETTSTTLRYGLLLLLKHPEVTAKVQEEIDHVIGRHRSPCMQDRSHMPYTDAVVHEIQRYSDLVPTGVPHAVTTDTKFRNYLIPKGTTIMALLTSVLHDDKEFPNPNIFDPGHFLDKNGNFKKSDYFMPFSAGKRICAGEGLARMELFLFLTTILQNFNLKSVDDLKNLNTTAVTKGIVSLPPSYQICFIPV
From the text: as §1

[9] = target: T1, CYP3A4; assay: Mechanism-based CYP3A4 inhibition; format: biochemical; conditions: PBPK input; read-out: Mechanism-based inhibitor CYP3A4 inhibition Ki
From the text: as §1

[10] = system: CYP3A4; assay: CYP3A4 induction; format: in vitro ADME; conditions: PBPK input
From the text: as §1

[11] = system: recurrent/refractory childhood cancers; conditions: IMT with ALK fusion gene, ALCL, neuroblastoma, other malignant solid tumors; cited from earlier work
[12] = fitted, multiple p.o. with standard meal, 150 mg capsule, Japanese adult patients

T1 sequence (P08684 whole entry): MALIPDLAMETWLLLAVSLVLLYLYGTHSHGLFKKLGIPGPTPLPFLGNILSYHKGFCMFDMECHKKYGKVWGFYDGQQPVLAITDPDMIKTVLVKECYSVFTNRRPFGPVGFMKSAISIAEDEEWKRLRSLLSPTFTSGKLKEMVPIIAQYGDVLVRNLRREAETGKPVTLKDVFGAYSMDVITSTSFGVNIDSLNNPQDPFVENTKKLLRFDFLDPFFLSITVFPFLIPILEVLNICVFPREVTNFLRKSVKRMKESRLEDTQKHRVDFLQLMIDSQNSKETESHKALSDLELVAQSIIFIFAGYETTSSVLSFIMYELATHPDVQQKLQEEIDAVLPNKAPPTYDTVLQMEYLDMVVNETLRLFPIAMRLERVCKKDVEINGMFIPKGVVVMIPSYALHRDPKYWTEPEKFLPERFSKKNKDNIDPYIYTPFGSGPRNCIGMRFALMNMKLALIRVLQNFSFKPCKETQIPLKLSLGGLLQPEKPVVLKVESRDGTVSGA

logP [1]	pKa 1 ([1]; monoprotic base)	fuGut [2]	QGUT ([3]; first-order absorption model (assumed))	Fa [3, 12]	Lag time [3, 12]	ka [3, 12]	Vd [4]	Contribution of CYP3A4 to hepatic metabolic clearance [5]	microsomal CLint [7]	Ki [8]	Ki [9]	CYP3A4 induction Indslope [10]	Compound	CLint, CYP3A4 ([5]; PBPK input)	CLint, CYP2J2 [6]	Clinical efficacy in childhood cancers [11]
1.96	7.05	0.01	8.49 L/h	0.48	2.92 h	0.22 h⁻¹	6.35 L/kg	about 40%	1710 µL/min/mg	0.147 µM	8.29 µM	3.52 µM⁻¹	CCc1cc2c(cc1N1CCC(N3CCOCC3)CC1)C(C)(C)c1[nH]c3cc(C#N)ccc3c1C2=O [alectinib, 9-ethyl-6,6-dimethyl-8-(4-morpholin-4-yl-piperidin-1-yl)-11-oxo-6,11-dihydro-5H-benzo[b]carbazole-3-carbonitrile]	9.98 μL/min/pmol of μL/min/pmol of isoform	285 μL/min/pmol of μL/min/pmol of isoform	–
–	–	–	–	–	–	–	–	–	–	–	–	–	C[C@@H](Oc1cc(-c2cnn(C3CCNCC3)c2)cnc1N)c1c(Cl)ccc(F)c1Cl [crizotinib]	–	–	has clinical efficacy in these childhood cancers
